# Results: ChEMBL document CHEMBL2311510, “A new single-photon emission computed tomography (SPECT) imaging agent for serotonin transporters: [(125)I]Flip-IDAM, (2-((2-((dimethylamino)methyl)-4-iodophenyl)thio)phenyl)methanol” (Bioorg Med Chem Lett, 2013)
# Legend:
# Bone [1] = experiment: Biodistribution in Sprague-Dawley rat bone assessed as compound level per organ at 11 uCi, iv measured 2 mins post compound dose; type: ADME, organism-based, Bone element; conditions: in vivo
# Liver [2] = experiment: Biodistribution in Sprague-Dawley rat liver assessed as compound level per organ at 11 uCi, iv measured 2 mins post compound dose; type: ADME, organism-based; conditions: in vivo
# Spleen [3] = experiment: Biodistribution in Sprague-Dawley rat spleen assessed as compound level per organ at 11 uCi, iv measured 2 mins post compound dose; type: ADME, organism-based; conditions: in vivo
# Kidney [4] = experiment: Biodistribution in Sprague-Dawley rat kidney assessed as compound level per organ at 11 uCi, iv measured 2 mins post compound dose; type: ADME, organism-based; conditions: in vivo
# Nucleic Acid [5] = experiment: Ratio of drug level in rest of brain region to cerebellum in Sprague-Dawley rat at 11 uCi, iv measured 120 mins post compound dose; type: ADME, organism-based; conditions: in vivo, 2 h
# Nucleic Acid [6] = experiment: Ratio of drug level in hypothalamus to cerebellum in Sprague-Dawley rat at 11 uCi, iv measured 120 mins post compound dose; type: ADME, organism-based; conditions: in vivo, 2 h
# Nucleic Acid [7] = experiment: Ratio of drug level in striatum to cerebellum in Sprague-Dawley rat at 11 uCi, iv measured 120 mins post compound dose; type: ADME, organism-based; conditions: in vivo, 2 h
# Nucleic Acid [8] = experiment: Ratio of drug level in striatum to cerebellum in Sprague-Dawley rat at 11 uCi, iv measured 60 mins post compound dose; type: ADME, organism-based; conditions: in vivo, 1 h
# Nucleic Acid [9] = experiment: Ratio of drug level in hypothalamus to cerebellum in Sprague-Dawley rat at 11 uCi, iv measured 30 mins post compound dose; type: ADME, organism-based; conditions: in vivo, 0.5 h
# Nucleic Acid [10] = experiment: Ratio of drug level in rest of brain region to cerebellum in Sprague-Dawley rat at 11 uCi, iv measured 30 mins post compound dose; type: ADME, organism-based; conditions: in vivo, 0.5 h
# Nucleic Acid [11] = experiment: Ratio of drug level in cortex to cerebellum in Sprague-Dawley rat at 11 uCi, iv measured 30 mins post compound dose; type: ADME, organism-based; conditions: in vivo, 0.5 h
# Nucleic Acid [12] = experiment: Ratio of drug level in rest of brain region to cerebellum in Sprague-Dawley rat at 11 uCi, iv measured 2 mins post compound dose; type: ADME, organism-based; conditions: in vivo
# Nucleic Acid [13] = experiment: Ratio of drug level in cortex to cerebellum in Sprague-Dawley rat at 11 uCi, iv measured 2 mins post compound dose; type: ADME, organism-based; conditions: in vivo
# Nucleic Acid [14] = experiment: Ratio of drug level in striatum to cerebellum in Sprague-Dawley rat at 11 uCi, iv measured 2 mins post compound dose; type: ADME, organism-based; conditions: in vivo
# Brain [15] = experiment: Biodistribution in Sprague-Dawley rat rest of brain at 11 uCi, iv measured 120 mins post compound dose; type: ADME, organism-based; conditions: in vivo, 2 h
# Hypothalamus [16] = experiment: Biodistribution in Sprague-Dawley rat hypothalamus at 11 uCi, iv measured 120 mins post compound dose; type: ADME, organism-based; conditions: in vivo, 2 h
# Striatum [17] = experiment: Biodistribution in Sprague-Dawley rat striatum at 11 uCi, iv measured 120 mins post compound dose; type: ADME, organism-based; conditions: in vivo, 2 h
# Hippocampus = experiment: Biodistribution in Sprague-Dawley rat hippocampus at 11 uCi, iv measured 60 mins post compound dose; type: ADME, organism-based; conditions: in vivo, 1 h
# Striatum [18] = experiment: Biodistribution in Sprague-Dawley rat striatum at 11 uCi, iv measured 60 mins post compound dose; type: ADME, organism-based; conditions: in vivo, 1 h
# Cerebellum [19] = experiment: Biodistribution in Sprague-Dawley rat cerebellum at 11 uCi, iv measured 60 mins post compound dose; type: ADME, organism-based; conditions: in vivo, 1 h
# Brain [20] = experiment: Biodistribution in Sprague-Dawley rat rest of brain at 11 uCi, iv measured 30 mins post compound dose; type: ADME, organism-based; conditions: in vivo, 0.5 h
# Cortex = experiment: Biodistribution in Sprague-Dawley rat cortex at 11 uCi, iv measured 30 mins post compound dose; type: ADME, organism-based; conditions: in vivo, 0.5 h
# Striatum [21] = experiment: Biodistribution in Sprague-Dawley rat striatum at 11 uCi, iv measured 30 mins post compound dose; type: ADME, organism-based; conditions: in vivo, 0.5 h
# Cerebellum [22] = experiment: Biodistribution in Sprague-Dawley rat cerebellum at 11 uCi, iv measured 30 mins post compound dose; type: ADME, organism-based; conditions: in vivo, 0.5 h
# Hypothalamus [23] = experiment: Biodistribution in Sprague-Dawley rat hypothalamus at 11 uCi, iv measured 2 mins post compound dose; type: ADME, organism-based; conditions: in vivo
# Brain [24] = experiment: Biodistribution in Sprague-Dawley rat rest of brain at 11 uCi, iv measured 2 mins post compound dose; type: ADME, organism-based; conditions: in vivo
# Bone [25] = experiment: Biodistribution in Sprague-Dawley rat bone at 11 uCi, iv measured 120 mins post compound dose; type: ADME, organism-based, Bone element; conditions: in vivo, 2 h
# Zone of skin [26] = experiment: Biodistribution in Sprague-Dawley rat skin at 11 uCi, iv measured 120 mins post compound dose; type: ADME, organism-based; conditions: in vivo, 2 h
# Liver [27] = experiment: Biodistribution in Sprague-Dawley rat liver at 11 uCi, iv measured 120 mins post compound dose; type: ADME, organism-based; conditions: in vivo, 2 h
# Spleen [28] = experiment: Biodistribution in Sprague-Dawley rat spleen at 11 uCi, iv measured 120 mins post compound dose; type: ADME, organism-based; conditions: in vivo, 2 h
# Kidney [29] = experiment: Biodistribution in Sprague-Dawley rat kidney at 11 uCi, iv measured 120 mins post compound dose; type: ADME, organism-based; conditions: in vivo, 2 h
# Heart [30] = experiment: Biodistribution in Sprague-Dawley rat heart at 11 uCi, iv measured 120 mins post compound dose; type: ADME, organism-based; conditions: in vivo, 2 h
# Blood [31] = experiment: Biodistribution in Sprague-Dawley rat blood at 11 uCi, iv measured 120 mins post compound dose; type: ADME, organism-based; conditions: in vivo, 2 h
# Brain [32] = experiment: Biodistribution in Sprague-Dawley rat brain at 11 uCi, iv measured 60 mins post compound dose; type: ADME, organism-based; conditions: in vivo, 1 h
# Blood [33] = experiment: Biodistribution in Sprague-Dawley rat blood assessed as compound level per organ at 11 uCi, iv measured 2 mins post compound dose; type: ADME, organism-based; conditions: in vivo
# Muscle tissue [34] = experiment: Biodistribution in Sprague-Dawley rat muscle at 11 uCi, iv measured 60 mins post compound dose; type: ADME, organism-based; conditions: in vivo, 1 h
# Heart [35] = experiment: Biodistribution in Sprague-Dawley rat heart at 11 uCi, iv measured 60 mins post compound dose; type: ADME, organism-based; conditions: in vivo, 1 h
# Zone of skin [36] = experiment: Biodistribution in Sprague-Dawley rat skin at 11 uCi, iv measured 2 mins post compound dose; type: ADME, organism-based; conditions: in vivo
# Muscle tissue [37] = experiment: Biodistribution in Sprague-Dawley rat muscle at 11 uCi, iv measured 2 mins post compound dose; type: ADME, organism-based; conditions: in vivo
# Lung [38] = experiment: Biodistribution in Sprague-Dawley rat lung at 11 uCi, iv measured 2 mins post compound dose; type: ADME, organism-based; conditions: in vivo
# Heart [39] = experiment: Biodistribution in Sprague-Dawley rat heart at 11 uCi, iv measured 2 mins post compound dose; type: ADME, organism-based; conditions: in vivo
# Bone [40] = experiment: Biodistribution in Sprague-Dawley rat bone assessed as compound level per organ at 11 uCi, iv measured 120 mins post compound dose; type: ADME, organism-based, Bone element; conditions: in vivo, 2 h
# Brain [41] = experiment: Biodistribution in Sprague-Dawley rat brain assessed as compound level per organ at 11 uCi, iv measured 120 mins post compound dose; type: ADME, organism-based; conditions: in vivo, 2 h
# Lung [42] = experiment: Biodistribution in Sprague-Dawley rat lung assessed as compound level per organ at 11 uCi, iv measured 120 mins post compound dose; type: ADME, organism-based; conditions: in vivo, 2 h
# Muscle tissue [43] = experiment: Biodistribution in Sprague-Dawley rat muscle assessed as compound level per organ at 11 uCi, iv measured 120 mins post compound dose; type: ADME, organism-based; conditions: in vivo, 2 h
# Bone [44] = experiment: Biodistribution in Sprague-Dawley rat bone assessed as compound level per organ at 11 uCi, iv measured 60 mins post compound dose; type: ADME, organism-based, Bone element; conditions: in vivo, 1 h
# Brain [45] = experiment: Biodistribution in Sprague-Dawley rat brain assessed as compound level per organ at 11 uCi, iv measured 60 mins post compound dose; type: ADME, organism-based; conditions: in vivo, 1 h
# Heart [46] = experiment: Biodistribution in Sprague-Dawley rat heart assessed as compound level per organ at 11 uCi, iv measured 60 mins post compound dose; type: ADME, organism-based; conditions: in vivo, 1 h
# Muscle tissue [47] = experiment: Biodistribution in Sprague-Dawley rat muscle assessed as compound level per organ at 11 uCi, iv measured 60 mins post compound dose; type: ADME, organism-based; conditions: in vivo, 1 h
# Brain [48] = experiment: Biodistribution in Sprague-Dawley rat brain assessed as compound level per organ at 11 uCi, iv measured 30 mins post compound dose; type: ADME, organism-based; conditions: in vivo, 0.5 h
# Heart [49] = experiment: Biodistribution in Sprague-Dawley rat heart assessed as compound level per organ at 11 uCi, iv measured 30 mins post compound dose; type: ADME, organism-based; conditions: in vivo, 0.5 h
smiles,measurement,setting,value
CN(C)Cc1cc([125I])ccc1Sc1ccccc1CO,Drug uptake,Bone [1],0.03 %ID
same,Drug uptake,Liver [2],9.42 %ID
same,Drug uptake,Spleen [3],1.04 %ID
same,Drug uptake,Kidney [4],4.61 %ID
same,Ratio,Nucleic Acid [5],1.18
same,Ratio,Nucleic Acid [6],1.93
same,Ratio,Nucleic Acid [7],1.89
same,Ratio,Nucleic Acid [8],2.12
same,Ratio,Nucleic Acid [9],4.01
same,Ratio,Nucleic Acid [10],2.22
same,Ratio,Nucleic Acid [11],0.82
same,Ratio,Nucleic Acid [12],0.75
same,Ratio,Nucleic Acid [13],0.92
same,Ratio,Nucleic Acid [14],0.84
same,Drug uptake,Brain [15],0.06 % ID/g
same,Drug uptake,Hypothalamus [16],0.1 % ID/g
same,Drug uptake,Striatum [17],0.1 % ID/g
same,Drug uptake,Hippocampus,0.21 % ID/g
same,Drug uptake,Striatum [18],0.25 % ID/g
same,Drug uptake,Cerebellum [19],0.12 % ID/g
same,Drug uptake,Brain [20],0.55 % ID/g
same,Drug uptake,Cortex,0.21 % ID/g
same,Drug uptake,Striatum [21],0.78 % ID/g
same,Drug uptake,Cerebellum [22],0.25 % ID/g
same,Drug uptake,Hypothalamus [23],1.54 % ID/g
same,Drug uptake,Brain [24],1.14 % ID/g
same,Drug uptake,Bone [25],0.16 % ID/g
same,Drug uptake,Zone of skin [26],0.13 % ID/g
same,Drug uptake,Liver [27],0.41 % ID/g
same,Drug uptake,Spleen [28],0.12 % ID/g
same,Drug uptake,Kidney [29],0.57 % ID/g
same,Drug uptake,Heart [30],0.14 % ID/g
same,Drug uptake,Blood [31],0.19 % ID/g
same,Drug uptake,Brain [32],0.14 % ID/g
same,Drug uptake,Blood [33],6.43 %ID
same,Drug uptake,Muscle tissue [34],0.13 % ID/g
same,Drug uptake,Heart [35],0.17 % ID/g
same,Drug uptake,Zone of skin [36],0.28 % ID/g
same,Drug uptake,Muscle tissue [37],0.26 % ID/g
same,Drug uptake,Lung [38],3.23 % ID/g
same,Drug uptake,Heart [39],1.46 % ID/g
same,Drug uptake,Bone [40],0.01 %ID
same,Drug uptake,Brain [41],0.13 %ID
same,Drug uptake,Lung [42],0.41 %ID
same,Drug uptake,Muscle tissue [43],5.45 %ID
same,Drug uptake,Bone [44],0.01 %ID
same,Drug uptake,Brain [45],0.31 %ID
same,Drug uptake,Heart [46],0.15 %ID
same,Drug uptake,Muscle tissue [47],11 %ID
same,Drug uptake,Brain [48],1.13 %ID
same,Drug uptake,Heart [49],0.28 %ID
